Columns and labels:
Puccinia recondita [1] = assay: Curative control of brown rust on wheat (glass house trial); type: in vivo; conditions: 63 ppm active compound, wheat seedlings, untreated plants 80% diseased leaf area
Protocol: (§1) A mixture was prepared of acetone and/or dimethylsulfoxide and the wetting agent/emulsifier Wettol, which is based on ethoxylated alkylphenoles, in a relation (volume) solvent-emulsifier of 99 to 1 was added to the compound to give a total of 5 ml. Water was then added to a total volume of 100 ml. This stock solution was diluted with the described solvent-emulsifier-water mixture to the given concentration. II.3) Curative Control of Brown Rust on Wheat Caused by Puccinia recondita The first two developed leaves of pot-grown wheat seedling were dusted with spores of Puccinia recondita. To ensure the success the artificial inoculation, the plants were transferred to a humid chamber without light and a relative humidity of 95 to 99% and 20 to 24° C. for 24 hours. The next day the plants were cultivated for 3 days in a greenhouse chamber at 20 to 24° C. and a relative humidity between 65 and 70%. Then the plants were sprayed to run-off with an aqueous suspension, containing the concentration of active ingredient or their mixture as described below. The plants could air-dry. Then the trial plants were cultivated for 8 days in a greenhouse chamber at 20 to 24° C. and a relative humidity between 65 and 70%. The extent of fungal attack on the leaves was visually assessed as % diseased leaf area.

Puccinia recondita [2] = assay: Preventative control of brown rust on wheat (glass house trial); type: in vivo; conditions: 63 ppm active compound, wheat seedlings, untreated plants 80% diseased leaf area
Protocol: as §1, with “II.4) Preventative” for “II.3) Curative”, “sprayed to run-off with an aqueous suspension, containing the concentration of active ingredient or their mixture as described below. The next day the plants were inoculated” for “dusted”, “hours.” for “hours. The next day the plants were cultivated for 3 days in a greenhouse chamber at 20 to 24° C. and a relative humidity between 65 and 70%. Then the plants were sprayed to run-off with an aqueous suspension, containing the concentration of active ingredient or their mixture as described below. The plants could air-dry.”, “6” for “8”

In the case of `CN(C)C(=O)C(F)(F)Oc1ccc(-c2noc(C(F)(F)F)n2)cc1` [I-2], the diseased leaf area (Puccinia recondita [1]) is reported as 3% and the diseased leaf area (Puccinia recondita [2]) is reported as 2%.
